Measured values: publication PMC11940194, “Synthesis, Antiproliferative Activity, and ADME Profiling of Novel Racemic and Optically Pure Aryl-Substituted Purines and Purine Bioisosteres” (Biomolecules, 2025)

Key:
[1] = test system: hepatocellular carcinoma (HepG2) cells; experiment: Antiproliferative MTT assay, HepG2; assay type: cell-based, human; conditions: for IC50: Homo sapiens, HepG2, 72 h, 72 h incubation, MTT, mean ± SD; for SI (HepG2): SI = [IC50 HFF]/[IC50 HepG2]
How it was run: (§1)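 MTT read-out after 72 h exposure to compounds (0.01–100 µM, fivefold/tenfold dilutions in growth medium). Seeding 3000 cells/well for carcinoma lines, 5000 for HFF-1. IC50 by linear regression; 5-FU reference.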

[2] = test system: MCF-7, CFPAC-1, HT-29, HepG2 tumor cell lines and HFF-1 fibroblasts; experiment: Antiproliferative activity, whole cell line panel; assay type: cell-based, human; conditions: tested cell lines
Method: The human ATCC tumor cell lines breast adenocarcinoma (MCF7), colorectal carcinoma (HT-29), pancreatic ductal adenocarcinoma (CFPAC-1), hepatocellular carcinoma (HepG2), and normal skin fibroblasts (HFF) derived from ATCC (American Type Culture Collection) were cultured in Dulbecco’s Modified Eagle Medium (DMEM) or Minimum Essential Medium (MEM) supplemented with 10% fetal bovine serum (FBS), 2 mM L-glutamine, 100 U/mL penicillin, and 100 µg/mL streptomycin (Lonza, Basel, Switzerland) in a humidified atmosphere with 5% CO2 at 37 °C. For the experiment, carcinoma cell lines and normal human cell lines were seeded in 96-well microtiter plates at a density of 3000 cells per well and 5000 cells per well, respectively, depending on the doubling time of the specific cell line. The test substances were then added at fivefold, tenfold dilutions (0.01 to 100 µM), freshly prepared in the growth medium on the day of testing, and incubated for a further 72 h. After 72 h of incubation, the growth rate of the cells was determined using the MTT assay according to the manufacturer’s guidelines. […] The IC50 values were calculated from the dose–response curves using linear regression analysis. The experiment was performed in tetraplicates in two individual experiments.
Newly synthesized compounds were evaluated for their cytotoxic activity in vitro against four human cancer cell lines, including human breast adenocarcinoma (MCF-7), ductal pancreatic adenocarcinoma (CFPAC-1), colorectal carcinoma (HT-29), and hepatocellular carcinoma (HepG2), as well as on non-cancerous skin fibroblasts (HFF-1), to check for non-specific toxicity. Furthermore, 5-Fluorouracil (5-FU) was used as a reference drug. The results are expressed as 50% inhibitory concentration (IC50) values and are listed in Table 2, Table 3, Table 4 and Table 5.

[3] = test system: breast adenocarcinoma (MCF7) cells; experiment: Antiproliferative MTT assay, MCF-7; assay type: cell-based, human; conditions: for IC50: Homo sapiens, MCF7, 72 h incubation, MTT, mean ± SD; for SI (MCF-7): SI = [IC50 HFF]/[IC50 MCF-7]
How it was run: as §1

[4] = test system: pancreatic ductal adenocarcinoma (CFPAC-1) cells; experiment: Antiproliferative MTT assay, CFPAC-1; assay type: cell-based, human; conditions: for IC50: Homo sapiens, CFPAC-1, 72 h, 72 h incubation, MTT, mean ± SD; for SI (CFPAC-1): SI = [IC50 HFF]/[IC50 CFPAC-1]
How it was run: as §1

[5] = test system: colorectal carcinoma (HT-29) cells; experiment: Antiproliferative MTT assay, HT-29; assay type: cell-based, human; conditions: for IC50: Homo sapiens, HT-29, 72 h, 72 h incubation, MTT, mean ± SD; for SI (HT-29): SI = [IC50 HFF]/[IC50 HT-29]
How it was run: as §1

[6] = test system: normal skin fibroblasts (HFF-1); experiment: Cytotoxicity MTT assay, normal skin fibroblasts; assay type: cell-based, human; conditions: Homo sapiens, HFF-1, 72 h, 72 h incubation, mean ± SD
How it was run: as §1

[7] = test system: MDCKII-MDR1 cells (P-glycoprotein); experiment: MDCKII-MDR1 permeability assay; assay type: in vitro ADME, canine cells with over-expressed human MDR1 gene; conditions: permeability class
Method: (§2) MDCKII-hMDR1 cells were obtained from Solvo Biotechnology, Hungary. DMEM, fetal bovine serum, Glutamax-100, Antibiotic/Antimycotic, DMSO, Dulbecco’s phosphate-buffered saline, and MEM Non-essential amino acids were purchased from Sigma (St. Louis, MO, USA). Bi-directional permeability and P-glycoprotein substrate assessments were carried out in Madin-Darby canine epithelial cells with the over-expressed human MDR1 gene (MDCKII-MDR1), coding for P-glycoprotein. Experimental procedures, as well as cell culture conditions, were the same as previously described. Briefly, compounds (10 µM, 1% DMSO v/v) in duplicate were incubated at 37 °C for 60 min with cell monolayer on 24-well Millicell inserts (Millipore, Burlington, MA, USA) with and without the P-glycoprotein inhibitor Elacridar (2 µM, International Laboratory, San Francisco, CA, USA). The inhibition of P-glycoprotein was verified by amprenavir (Moravek Biochemicals Inc, Brea, CA, USA) and monolayer integrity using Lucifer yellow (Sigma, St. Louis, MO, USA). LC-MS/MS measured compound concentrations and Lucifer yellow was measured on an Infinite F500 (Tecan, Männedorf, CH, Switzerland) using excitation of 485 nm and emission of 530 nm.
(§3) All samples were quantified using tandem mass spectrometry coupled to liquid chromatography. Samples were analyzed on a Sciex API4000 Triple Quadrupole Mass Spectrometer (Sciex, Division of MDS Inc., Toronto, Canada) coupled to a Shimadzu Nexera X2 UHPLC frontend (Kyoto, Japan). Samples were injected onto a UHPLC column (HALO2 C18, 2.1 × 20 mm, 2 µm or Luna Omega 1.6 µm Polar C18 100A, 30 × 2.1 mm) and eluted with a gradient at 50 °C. The mobile phase was composed of acetonitrile/water mixture (9/1, with 0.1% formic acid) and 0.1% formic acid in deionized water. The flow rate was 0.7 mL/min under gradient conditions, leading to a total run time of 1.5–2 min. A positive ion mode with turbo spray, an ion source temperature of 550 °C, and a dwell time of 150 ms were utilized for mass spectrometric detection. Quantitation was performed using multiple reaction monitoring (MRM) at the specific transitions for each compound.

[8] = test system: P-glycoprotein (human MDR1); experiment: MDCKII-MDR1 permeability assay; assay type: in vitro ADME, canine cells with over-expressed human MDR1 gene; conditions: dog, MDCK-MDR1; for Papp A→B at 60 min, 10 µM / Papp B→A at 60 min, 10 µM: 37 °C; for efflux ratio at 60 min, 10 µM: <2 no efflux, >2 active efflux
Method: as §2, §3

[9] = Metabolic stability in mouse liver microsomes; assay type: in vitro ADME; conditions: for Clearance Class.: mouse liver microsomes; for Clearance Values (CL): predicted in vivo hepatic clearance from mouse liver microsome t1/2, 1 µM compound
Text: Mouse liver microsomes were obtained from Corning Life Sciences (Corning, NY, USA). DMSO, nicotinamide adenine dinucleotide phosphate (NADP), glucose-6-phosphate, glucose-6-phosphate dehydrogenase, magnesium chloride, propranolol, caffeine, diclofenac, and phosphate-buffered saline (PBS) were purchased from Sigma (St. Louis, MO, USA). Acetonitrile (ACN) and methanol (MeOH) were obtained from Merck (Darmstadt, Germany). Testosterone was purchased from Steraloids (Newport, RI, USA). Metabolic stability was assessed in mouse liver microsomes. Compounds (final concentration of 1 µM, 0.03% DMSO v/v) were incubated in duplicate in phosphate buffer (50 mM, pH 7.4) at 37 °C together with mouse liver microsomes in the absence and presence of the NADPH cofactor (0.5 mM nicotinamide adenine dinucleotide phosphate, 5 mM glucose-6-phosphate, 1.5 U/mL glucose-6-phosphate dehydrogenase, and 0.5 mM magnesium chloride). Incubation and sampling were performed on a Freedom EVO 200 (Tecan, Männedorf, CH, Switzerland) at […], 10, 20, 30, 45, and 60 min. The reaction was quenched using 3 volumes of a mixture of ACN/MeOH (2:1) containing internal standard (diclofenac), centrifuged, and the supernatants were analyzed using LC-MS/MS. The metabolic activity of the microsomes was verified via simultaneous analysis of several controls including testosterone, propranolol, and caffeine. The in vitro half-life (t1/2) was calculated using GraphPad Prism (v9.0 software) non-linear regression of % of parent compound remaining versus time. In vitro clearance, expressed as µL/min/mg, was estimated from the in vitro half-life (t1/2) and normalized for the protein amount in the incubation mixture, assuming 52.5 mg of protein per gram of liver and using constant values for mouse liver weight/body weight [87.5 g/kg] and mouse liver blood flow (LBF) [131 mL/min/kg].
as §3

IC50 [1]	IC50 [3]	IC50 [4]	IC50 [5]	Permeability [7]	Papp A→B at 60 min, 10 µM [8]	Papp B→A at 60 min, 10 µM [8]	efflux ratio at 60 min, 10 µM [8]	Clearance Class. [9]	Clearance Values (CL) [9]	Compound	antiproliferative activity (in words) [2]	IC50 [6]	SI (HepG2) [1]	SI (HT-29) [5]	SI (MCF-7) [3]	SI (CFPAC-1) [4]
> 100 µM	> 100 µM	> 100 µM	> 100 µM	–	–	–	–	–	–	OCC(c1ccccc1)n1cc(Cn2cnc3c(Cl)nccc32)nn1 (stereo not drawn) [Compound 46a, 4-Chloro-1-((1-(2-hydroxy-1-phenylethyl)-1H-1,2,3-triazol-4-yl)methyl)-1H-imidazo[4,5-c]pyridine]	deprived of any activity	> 100 µM	–	–	–	–
7 ± 1.5 µM	10 ± 0.4 µM	19 ± 2.4 µM	5 ± 0.1 µM	MODERATE	2.2 ×10⁻⁶ cm/s	42.9 ×10⁻⁶ cm/s	19.5	LOW (<30% low)	–	O[C@H](Cn1cc(Cn2cnc3c(Cl)ncnc32)nn1)c1ccc(C(F)(F)F)cc1 [Compound (S)-40b, (S)-6-Chloro-9-((1-(2-hydroxy-2-(4-(trifluoromethyl)phenyl)ethyl)-1H-1,2,3-triazol-4-yl)methyl)-9H-purine]	–	12 ± 3.4 µM	1.7	2.4	–	–
32 ± 16.1 µM	21 ± 1.6 µM	13 ± 2.2 µM	19 ± 7.5 µM	highest permeability and HIGH	26.5 ×10⁻⁶ cm/s	90.7 ×10⁻⁶ cm/s	3.4	–	90%	OC(Cn1cc(Cn2ccc3c(Cl)ncnc32)nn1)c1ccc(C(F)(F)F)cc1 (stereo not drawn) [Compound 45b, 4-Chloro-7-((1-(2-hydroxy-2-(4-(trifluoromethyl)phenyl)ethyl)-1H-1,2,3-triazol-4-yl)methyl)-7H-pyrrolo[2,3-d]pyrimidine]	–	12 ± 3.1 µM	–	–	0.6	0.9
35 ± 1.8 µM	29 ± 14 µM	43 ± 9.1 µM	36 ± 1.4 µM	highest permeability and HIGH	18.3 ×10⁻⁶ cm/s	28.6 ×10⁻⁶ cm/s	1.7	–	92%	OC(Cn1cc(Cn2ccc3ccccc32)nn1)c1ccc(Br)cc1 (stereo not drawn) [Compound 29b, 1-((1-(2-Hydroxy-2-(4-bromophenyl)ethyl)-1H-1,2,3-triazol-4-yl)methyl)-1H-indol]	–	25 ± 4.1 µM	–	–	–	0.6
83 ± 28.3 µM	79 ± 17.6 µM	69 ± 2 µM	87 ± 9.9 µM	HIGH	10.9 ×10⁻⁶ cm/s	67.4 ×10⁻⁶ cm/s	6.2	MODERATE (30–70% moderate)	56%	OCC(c1ccc(Br)cc1)n1cc(Cn2ccc3c(Cl)ncnc32)nn1 (stereo not drawn) [Compound 44a, 4-Chloro-7-((1-(2-hydroxy-1-(4-bromophenyl)ethyl)-1H-1,2,3-triazol-4-yl)methyl)-7H-pyrrolo[2,3-d]pyrimidine]	–	79 ± 17.6 µM	–	–	1.0	1.1
8 ± 0.6 µM	36 ± 23.1 µM	16 ± 2.6 µM	6 ± 0.6 µM	MODERATE	2.2 ×10⁻⁶ cm/s	45.2 ×10⁻⁶ cm/s	21	LOW (<30% low)	–	O[C@@H](Cn1cc(Cn2cnc3c(Cl)ncnc32)nn1)c1ccc(C(F)(F)F)cc1 [Compound (R)-40b, (R)-6-Chloro-9-((1-(2-hydroxy-2-(4-(trifluoromethyl)phenyl)ethyl)-1H-1,2,3-triazol-4-yl)methyl)-9H-purine]	–	6 ± 4.8 µM	0.7	1.0	–	–
64 ± 19.5 µM	39 ± 10.1 µM	8 ± 3.2 µM	70 ± 14.5 µM	MODERATE	4.3 ×10⁻⁶ cm/s	69.4 ×10⁻⁶ cm/s	17.2	MODERATE (30–70% moderate)	48%	OC(Cn1cc(Cn2cnc3ccccc32)nn1)c1ccc(Br)cc1 (stereo not drawn) [Compound 34b, 1-((1-(2-Hydroxy-2-(4-bromophenyl)ethyl)-1H-1,2,3-triazol-4-yl)methyl)-1H-benzimidazole]	–	32 ± 14.1 µM	–	–	–	4.0
32 ± 3.2 µM	25 ± 6.4 µM	15 ± 0.2 µM	30 ± 0.7 µM	highest permeability and HIGH	25.3 ×10⁻⁶ cm/s	62.7 ×10⁻⁶ cm/s	2.5	–	84%	OC(Cn1cc(Cn2ccc3c(Cl)ncnc32)nn1)c1ccc(Br)cc1 (stereo not drawn) [Compound 44b, 4-Chloro-7-((1-(2-hydroxy-2-(4-bromophenyl)ethyl)-1H-1,2,3-triazol-4-yl)methyl)-7H-pyrrolo[2,3-d]pyrimidine]	–	27 ± 11.9 µM	–	–	1.1	1.8
